Assay results published in patent publication US20080269167A1, “Preparation Comprising Iron(III) Complex Compounds And Redox-Active Substance(s)” (VIFOR (INTERNATIONAL) AG, priority 2005, published 2008).

Columns and labels:
[1] = pH 7; relative to normal hydrogen electrode; cited from earlier work
[2] = Reaction of iron(III)-polymaltose complex with ascorbic acid in buffered solution, UV-VIS, exclusion of oxygen; format: physicochemical
Excerpt: The following measurements were obtained when iron(III)-polymaltose complex with ascorbic acid (ascorbic acid) was investigated at pH 3.0, 5.5 and 8.0:
The buffered solutions (buffers as described above, see Geisser, P., Arneim. -Forsch./Drug Res. 1990, 40 (II), 7, 754-760) were mixed in a molar ratio of Fe(III):ascorbic acid of 1:1, the concentration of Fe(III) and ascorbic acid in the mixture being 5×10^−5 mol/l in each case, and investigated using a conventional UV-VIS spectrophotometer. The operation was carried out with the strict exclusion of oxygen.

[3] = pH 3.0, reaction time 2 h, Fe(III):ascorbic acid 1:1, 5x10^-5 mol/l
[4] = pH 3.0, reaction time 4 h, Fe(III):ascorbic acid 1:1
[5] = pH 5.5, reaction time 2 h, Fe(III):ascorbic acid 1:1
[6] = pH 8.0, reaction time 2 h, Fe(III):ascorbic acid 1:1
[7] = pH 8.0, reaction time 4 h, Fe(III):ascorbic acid 1:1

| Molecule | redox potential [1] [mV] | reaction with ascorbic acid to give dehydroascorbic acid ([2]; pH 3, 5.5 and 8, buffered solution, exclusion of oxygen) | Formation of Fe2+ ions [2, 3] [%] | Formation of dehydroascorbic acid [2, 3] [%] | Formation of Fe2+ ions [2, 4] [%] | Formation of dehydroascorbic acid [2, 4] [%] | Formation of Fe2+ ions [2, 5] [%] | Formation of dehydroascorbic acid [2, 5] [%] | Formation of Fe2+ ions [2, 6] [%] | Formation of dehydroascorbic acid [2, 6] [%] | Formation of Fe2+ ions [2, 7] [%] | Formation of dehydroascorbic acid [2, 7] [%] | reaction with ascorbic acid to dehydroascorbic acid and Fe(II) ([2]; within a period of 4 hours, pH values of from 3 to 8) |
| --- | --- | --- | --- | --- | --- | --- | --- | --- | --- | --- | --- | --- | --- |
| O=C1O[C@H]([C@@H](O)CO)C(O)=C1O [ascorbic acid, reference compound] | −66 | – | – | – | – | – | – | – | – | – | – | – | – |
| iron(III)-polymaltose complex | −332 | does not react | 2 | 2 | 7 | 7 | 0 | 0 | 5 | 9 | 5 | 13 | reacts only slowly |
